“Also recorded” adds a separate entry of the source.
Columns and labels:
BMP2 = target: T1, BMP2 (Homo sapiens, UniProt P12643); experiment: Biacore binding to hALK1-Fc: BMP2
T1 sequence (P12643 283-396): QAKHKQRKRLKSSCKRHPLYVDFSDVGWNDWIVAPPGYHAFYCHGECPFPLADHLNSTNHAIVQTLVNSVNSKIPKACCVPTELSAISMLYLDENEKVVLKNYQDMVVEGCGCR
Protocol: (§1) ALK1 is a type 1 receptor for ligands of the TGFβ family. Multiple members of the TGFβ family were tested for binding to a human ALK1-Fc fusion protein, using a Biacore™ system.

A498 cells = experiment: A498 human RCC tumor xenograft model; type: in vivo, mouse; settings: for tumor growth, single agent: 10 mg/kg IP 3 times per week, vs Fc
Protocol: (§2) A498 cells, a VHL-deficient human RCC cell line (see Iliopoulos et al., Nature Medicine 1995; 1:822-6), was obtained from the American Type Culture Collection, and cultured in Eagle's minimal essential medium. Media was supplemented with 2 mmol/L L-glutamine, 10% FCS, and 1% streptomycin (50 μg/mL), and cells were cultured at 37° C. with 5% CO2. […] cells were harvested from subconfluent cultures by a brief exposure to 0.25% trypsin and 0.02% EDTA. Trypsinization was stopped with medium containing 10% fetal bovine serum, and the cells were washed once in serum-free medium and resuspended in PBS. Only suspensions consisting of single cells with >90% viability were used for the injections.
To establish human RCC xenografts, A498 tumor cells were injected subcutaneously (1×10^7 cells) into the flanks of 6- to 8-week-old female athymic nude/beige mice (Charles River Laboratories) that were of 20 g average body weight. Tumors developed in >80% of the mice and were usually visible within a few days of implantation. Mice were treated with Fc or ALK-Fc when the tumors had grown to a diameter of 12 mm. ALK-Fc (10 mg/kg) was administered 3 times per week intraperitoneally. Tumors were measured daily while mice were on treatment.
A498 cell culture and xenograft establishment was performed as described in Example 14. Mice were treated with vehicle plus Fc, sunitinib plus Fc, vehicle plus ALK-Fc, or subitinib plus ALK-Fc when the tumors had grown to a diameter of 12 mm. Sunitinib (53.6 mg/kg; Pfizer) was administered 6 of 7 days per week by gavage beginning. ALK1-Fc (10 mg/kg) was administered 3 times per week intraperitoneally. Tumors were measured daily while mice were on treatment.

GDF5 = target: T2, GDF5 (Homo sapiens, UniProt P43026); experiment: Biacore binding to hALK1-Fc: GDF5
T2 sequence (P43026 382-501): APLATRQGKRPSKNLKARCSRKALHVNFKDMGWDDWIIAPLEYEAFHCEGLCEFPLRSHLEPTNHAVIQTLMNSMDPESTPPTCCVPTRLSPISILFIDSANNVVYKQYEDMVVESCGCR
Protocol: as §1

GDF7 = target: T3, GDF7 (Homo sapiens, UniProt Q7Z4P5); experiment: Biacore binding to hALK1-Fc: GDF7
T3 sequence (Q7Z4P5 322-450): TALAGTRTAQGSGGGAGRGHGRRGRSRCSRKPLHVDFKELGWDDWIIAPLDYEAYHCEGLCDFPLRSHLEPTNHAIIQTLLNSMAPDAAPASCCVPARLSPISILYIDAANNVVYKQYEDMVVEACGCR
Protocol: as §1

786-0 cells = experiment: 786-0 human RCC tumor xenograft model; type: in vivo, mouse; settings: sunitinib 53.6 mg/kg gavage 6 of 7 days; ALK1-Fc 10 mg/kg IP 3 times per week
Protocol: as §2, with “786-0” for “A498”, “von Hippel Lindau (VHL)-deficient” for “VHL-deficient”, “renal cell carcinoma (RCC)” for “RCC”, “RPMI 1640 medium (Cellgro).” for “Eagle's minimal essential medium.”, “serum” for “serum,”
To establish human RCC xenografts, 786-0 tumor cells were injected subcutaneously (1×10^7 cells) into the flanks of 6- to 8-week-old female athymic nude/beige mice (Charles River Laboratories) that were of 20 g average body weight. Tumors developed in >80% of the mice and were usually visible within a few days of implantation. Mice were treated with vehicle plus Fc, sunitinib plus Fc, vehicle plus ALK-Fc, or sunitinib plus ALK-Fc when the tumors had grown to a diameter of 12 mm. Sunitinib (53.6 mg/kg; Pfizer) was administered 6 of 7 days per week by gavage beginning. […] Tumors were measured every two days while mice were on treatment.

ocular angiogenesis = experiment: Mouse corneal micropocket assay; type: in vivo; settings: intraperitoneally; identical weight/weight dosages
From the text: In preferred embodiments, an ALK1 ECD polypeptide binds to one or more of GDF5, GDF6, GDF7, BMP9 and BMP10. […] Binding may be assessed using purified proteins in solution or in a surface plasmon resonance system, such as a Biacore™ system. […] Bioassays for angiogenesis inhibitory activity include the chick chorioallantoic membrane (CAM) assay, the mouse corneal micropocket assay, or an assay known in the art for measuring the effect of administering isolated or synthesized proteins on implanted tumors. The CAM assay is described by O'Reilly, et al., in “Angiogenic Regulation of Metastatic Growth” Cell, 1994; 79 (2):315-328. Briefly, 3 day old chicken embryos with intact yolks are separated from the egg and placed in a petri dish. After 3 days of incubation, a methylcellulose disc containing the protein to be tested is applied to the CAM of individual embryos. After 48 hours of incubation, the embryos and CAMs are observed to determine whether endothelial growth has been inhibited. The mouse corneal micropocket assay involves implanting a growth factor-containing pellet, […] of capillaries that are elaborated in the cornea. Other assays are described in the Examples.
Similar data were obtained when a Matrigel plug impregnated with VEGF was implanted in a non-ocular location.

endothelial cells = experiment: Endothelial cell tube forming assay on Matrigel with ECGS; type: cell-based; settings: for tube formation compared with endostatin: endostatin 100 ng/ml
From the text: In order to evaluate the angiogenic effect of ALK1-Fc in an in vitro system, we assayed the effectiveness of the compound in reducing tube formation of endothelial cells on a Matrigel substrate. This technique is commonly used to assess neovascularization, giving both rapid and highly reproducible results. Endothelial Cell Growth Supplement (ECGS) is used to induce the formation of microvessels from endothelial cells on Matrigel, and the efficacy of anti-angiogenic compounds are then gauged as a reduction of cord formation in the presence of both the drug and ECGS over an 18 hour timecourse. As expected, addition of ECGS (200 ng/ml) induced significant cord formation, as compared to the negative control (no treatment added), which indicates basal levels of endothelial cell cord formation produced on Matrigel substrate (FIG. 5).

Substance: hALK1-Fc: extracellular domain of human ALK1 (amino acids 22-120) fused to a human IgG1 Fc with a minimal linker (SEQ ID NO:3/14)
- binding to hALK1-Fc (BMP2): failed to show substantial binding; also recorded: only limited binding
- tumor growth, single agent (A498 cells): inhibit tumor growth as a single agent
- tumor growth, single agent (A498 cells; listed as ALK-Fc): dramatically slowed tumor growth
- effect on tumor growth inhibiting activity of sunitinib (A498 cells; administered in combination with sunitinib): substantially increased the tumor growth inhibiting activity of sunitinib
- tumor growth (A498 cells; combination study, sunitinib 53.6 mg/kg gavage, ALK1-Fc 10 mg/kg IP): slowed tumor growth
- Kd (GDF5): ~50 nM
- Kd (GDF7): ~50 nM
- tumor growth (786-0 cells): trended toward inhibiting tumor growth as a single agent
- ocular angiogenesis (ocular angiogenesis): significantly inhibited ocular angiogenesis; also recorded: to the same degree as anti-VEGF; also recorded: comparable effects
- cord formation (endothelial cells; 100 ng/ml, ECGS 200 ng/ml, 18 hour): cord formation was visibly reduced
- tube formation compared with endostatin (endothelial cells; ECGS): more potent anti-angiogenic activity than the negative control endostatin
- tube formation compared with endostatin (endothelial cells; ECGS, listed as ACE): to a greater degree than the positive control, Endostatin
- neovascularization (quantification of vessel length) (endothelial cells; every concentration, ECGS): reduced neovascularization to basal levels

Source: patent publication US20130202594A1, “ALK1 Antagonists and Their Uses in Treating Renal Cell Carcinoma” (priority 2012, published 2013)
